Key:
[1] = target: T1, Adrenergic receptor alpha-2 (Rattus norvegicus, UniProt P22086+P19328+P22909); test: Binding affinity to the alpha-2 adrenergic receptor of rat cerebral cortex assayed using [3H]idazoxan as radioligand; assay type: tissue-based
T1 sequence (P22086 whole entry): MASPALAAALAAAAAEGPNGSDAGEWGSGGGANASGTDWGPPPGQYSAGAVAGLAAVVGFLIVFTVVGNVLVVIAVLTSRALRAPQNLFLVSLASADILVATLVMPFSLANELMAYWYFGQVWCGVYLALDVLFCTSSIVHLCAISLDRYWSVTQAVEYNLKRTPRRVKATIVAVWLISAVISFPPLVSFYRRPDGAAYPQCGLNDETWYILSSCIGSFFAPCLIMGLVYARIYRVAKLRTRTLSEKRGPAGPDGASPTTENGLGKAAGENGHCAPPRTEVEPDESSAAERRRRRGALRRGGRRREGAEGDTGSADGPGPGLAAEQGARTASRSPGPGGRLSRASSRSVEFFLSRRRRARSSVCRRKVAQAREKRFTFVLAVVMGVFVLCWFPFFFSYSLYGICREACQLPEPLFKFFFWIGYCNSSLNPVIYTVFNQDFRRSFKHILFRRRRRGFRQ
T1 sequence (P19328 whole entry): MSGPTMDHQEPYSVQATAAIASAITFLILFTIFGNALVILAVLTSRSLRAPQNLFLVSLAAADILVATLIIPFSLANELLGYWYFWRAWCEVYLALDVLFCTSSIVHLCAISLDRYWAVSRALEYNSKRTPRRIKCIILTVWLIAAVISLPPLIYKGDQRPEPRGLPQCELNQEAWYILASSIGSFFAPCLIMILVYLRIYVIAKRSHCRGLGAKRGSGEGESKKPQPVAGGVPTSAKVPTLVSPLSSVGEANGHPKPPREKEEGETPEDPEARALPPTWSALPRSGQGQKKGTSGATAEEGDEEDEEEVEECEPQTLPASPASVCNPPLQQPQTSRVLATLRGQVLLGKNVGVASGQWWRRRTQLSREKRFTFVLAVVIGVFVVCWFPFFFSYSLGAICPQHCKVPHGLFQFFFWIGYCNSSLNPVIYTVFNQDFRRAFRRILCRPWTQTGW
T1 sequence (P22909 whole entry): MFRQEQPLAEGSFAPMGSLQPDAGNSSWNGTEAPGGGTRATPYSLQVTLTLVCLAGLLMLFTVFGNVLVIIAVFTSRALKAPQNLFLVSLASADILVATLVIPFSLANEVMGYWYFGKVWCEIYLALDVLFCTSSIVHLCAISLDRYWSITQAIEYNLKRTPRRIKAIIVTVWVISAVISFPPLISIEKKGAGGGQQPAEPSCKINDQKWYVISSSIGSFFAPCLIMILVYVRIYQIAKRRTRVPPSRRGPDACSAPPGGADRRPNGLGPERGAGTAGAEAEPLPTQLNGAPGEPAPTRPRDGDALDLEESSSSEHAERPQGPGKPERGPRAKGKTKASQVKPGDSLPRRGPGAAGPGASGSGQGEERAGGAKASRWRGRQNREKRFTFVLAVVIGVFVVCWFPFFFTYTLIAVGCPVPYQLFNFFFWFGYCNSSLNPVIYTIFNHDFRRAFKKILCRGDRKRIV

[2] = target: T1, Adrenergic receptor alpha-2; test: Binding affinity to alpha-2 adrenergic receptor of rat cerebral cortex assayed using [3H]yohimbine as radioligand; assay type: tissue-based
[3] = target: T2, Adrenergic receptor alpha-1 (Rattus norvegicus, UniProt P15823+P23944+P43140); test: Binding affinity determined to alpha-1 adrenergic receptor of rat cerebral cortex using [3H]prazosin as radioligand; assay type: tissue-based
T2 sequence (P15823 whole entry): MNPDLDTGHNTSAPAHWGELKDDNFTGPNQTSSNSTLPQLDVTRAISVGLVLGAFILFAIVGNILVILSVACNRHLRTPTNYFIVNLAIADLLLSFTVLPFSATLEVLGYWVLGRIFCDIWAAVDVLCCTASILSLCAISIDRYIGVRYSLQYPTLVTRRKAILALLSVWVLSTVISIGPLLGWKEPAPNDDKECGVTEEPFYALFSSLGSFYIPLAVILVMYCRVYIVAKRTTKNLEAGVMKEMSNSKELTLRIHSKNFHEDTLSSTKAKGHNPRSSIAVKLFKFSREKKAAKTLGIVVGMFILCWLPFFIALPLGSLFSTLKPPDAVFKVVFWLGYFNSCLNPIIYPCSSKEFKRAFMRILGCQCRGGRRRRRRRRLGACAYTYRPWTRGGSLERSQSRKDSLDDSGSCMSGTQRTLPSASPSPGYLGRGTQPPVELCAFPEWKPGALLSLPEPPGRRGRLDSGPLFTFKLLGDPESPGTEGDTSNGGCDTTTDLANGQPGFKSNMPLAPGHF
T2 sequence (P23944 whole entry): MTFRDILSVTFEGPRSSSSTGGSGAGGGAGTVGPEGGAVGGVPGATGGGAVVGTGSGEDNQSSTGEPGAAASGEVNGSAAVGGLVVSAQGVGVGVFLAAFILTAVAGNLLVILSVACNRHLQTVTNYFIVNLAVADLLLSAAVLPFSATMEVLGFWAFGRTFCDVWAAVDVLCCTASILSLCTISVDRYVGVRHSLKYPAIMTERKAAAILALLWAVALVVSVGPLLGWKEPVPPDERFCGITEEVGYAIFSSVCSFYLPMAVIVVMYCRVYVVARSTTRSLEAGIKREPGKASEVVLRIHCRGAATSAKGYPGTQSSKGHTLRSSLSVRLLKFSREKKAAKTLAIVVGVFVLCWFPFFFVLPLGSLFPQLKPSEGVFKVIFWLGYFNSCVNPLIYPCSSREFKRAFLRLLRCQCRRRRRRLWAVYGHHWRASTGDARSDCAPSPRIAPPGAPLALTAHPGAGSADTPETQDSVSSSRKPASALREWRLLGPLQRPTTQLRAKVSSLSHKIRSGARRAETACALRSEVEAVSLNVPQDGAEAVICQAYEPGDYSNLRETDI
T2 sequence (P43140 whole entry): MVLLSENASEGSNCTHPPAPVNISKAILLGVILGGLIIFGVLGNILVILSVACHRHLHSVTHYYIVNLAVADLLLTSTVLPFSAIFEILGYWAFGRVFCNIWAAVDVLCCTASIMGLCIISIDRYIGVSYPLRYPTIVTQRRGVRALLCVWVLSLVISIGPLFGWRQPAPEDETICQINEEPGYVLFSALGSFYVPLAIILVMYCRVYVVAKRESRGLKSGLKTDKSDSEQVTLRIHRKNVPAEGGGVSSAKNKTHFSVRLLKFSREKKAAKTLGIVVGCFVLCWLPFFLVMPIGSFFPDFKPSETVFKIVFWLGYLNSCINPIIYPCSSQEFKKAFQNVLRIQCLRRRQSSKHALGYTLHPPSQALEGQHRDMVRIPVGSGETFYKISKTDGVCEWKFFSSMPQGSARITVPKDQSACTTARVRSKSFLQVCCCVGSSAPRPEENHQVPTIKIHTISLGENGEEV

[4] = target: T1, Adrenergic receptor alpha-2; test: Binding affinity was determined against alpha-2 adrenergic receptor of rat cerebral cortex using [3H]yohimbine as radioligand; assay type: tissue-based
[5] = target: T3, Adrenergic receptor alpha-2 (Rattus norvegicus) (UniProt P22086+P19328+P22909); test: Selectivity ratio is the antilog of the [3H]-yohimbine pKi minus the [3H]prazosin pKi; assay type: protein assay
[6] = target: T3, Adrenergic receptor alpha-2 (Rattus norvegicus); test: Antilog of the [3H]-idazoxan pKi minus the [3H]yohimbine pKi was determined; assay type: protein assay
[7] = target: T1, Adrenergic receptor alpha-2; test: Binding affinity was determined against alpha-2 adrenergic receptor of rat cerebral cortex using [3H]idazoxan as radioligand; assay type: tissue-based

Structure (SMILES) | Log Ki [1] | Log Ki [2] | Log Ki [3] | Log Ki [4] | Selectivity ratio [5] | Ratio [6] | Log Ki [7]
Cl.Cl.Fc1cccc2c1CN(CC1=NCCN1)CC2 | -8.27 | -7.25 | -5.5 |  |  |  | 
Cc1cccc2c1CCN(CC1=NCCN1)C2.Cl.Cl | -7.38 | -6.57 | -5.26 |  |  |  | 
Cl.Nc1cccc2c1CCN(CC1=NCCN1)C2 | -6.99 | -6.17 | < -5 |  |  |  | 
C=CCC1c2ccccc2CCN1CC1=NCCN1.Cl.Cl (stereo not drawn) | -6.41 | -5.97 | < -5 |  |  |  | 
CC1c2ccccc2CCN1CC1=NCCN1.Cl.Cl (stereo not drawn) | -7.32 | -7.19 | -5.14 |  |  |  | 
CC1(C)c2ccccc2CCN1CC1=NCCN1.Cl.Cl | -6.68 | -6 | < -5 |  |  |  | 
COc1cc2c(cc1OC)CN(CC1=NCCN1)CC2.Cl.Cl | -6.13 | -5.87 | < -5 |  |  |  | 
Cl.Cl.Clc1cccc2c1CN(CC1=NCCN1)C2 | -8.38 | -7.71 | -6.05 |  |  |  | 
COc1cccc2c1CCN(CC1=NCCN1)C2.Cl.Cl | -8 | -7.07 | -4.72 |  |  |  | 
COc1ccc2c(c1OC)CCN(CC1=NCCN1)C2.Cl.Cl |  |  | < -5 | -6.44 | 28 | 0.6 | -6.24
Cl.Cl.Clc1cccc2c1CN(CC1=NCCN1)CC2 |  |  | -5.8 | -6.67 | 7 | 36 | -8.23
COc1ccc(OC)c2c1CCN(CC1=NCCN1)C2C.Cl.Cl (stereo not drawn) |  |  | -5.19 | -7.71 | 332 | 0.2 | -7.02
COc1ccc(OC)c2c1CCN(CC1=NCCN1)C2.Cl.Cl | -7.8 | -7.51 | -4.8 |  |  |  | 
CC1c2cccc(Cl)c2CCN1CC1=NCCN1.Cl.Cl (stereo not drawn) | -7.62 | -6.74 | -5.2 |  |  |  | 
Cl.Cl.c1ccc2c(c1)CCN(CC1=NCCN1)C2 | -7.77 | -6.32 | -5.67 |  |  |  | 
Cl.Cl.O=[N+]([O-])c1cccc2c1CCN(CC1=NCCN1)C2 | -7.14 | -6.13 | < -5 |  |  |  | 
Cl.Cl.Clc1ccc2c(c1Cl)CN(CC1=NCCN1)CC2 | -7.68 | -6.52 | < -5 |  |  |  | 
CC1Cc2ccccc2CN1CC1=NCCN1.Cl.Cl (stereo not drawn) | -7.38 | -6.9 | < -5 |  |  |  | 
Cl.Cl.Fc1cccc2c1CCN(CC1=NCCN1)C2 | -8.39 | -7.48 | -5.55 |  |  |  | 
Cl.Cl.c1ccc2c(c1)CN(CC1=NCCN1)C2 |  |  | -5.43 | -6.91 | 30 | 14 | -8.07
Cl.Cl.Clc1ccc(Cl)c2c1CCN(CC1=NCCN1)C2 | -8.12 | -7.14 | -5.5 |  |  |  | 
CCC1c2ccccc2CCN1CC1=NCCN1.Cl.Cl (stereo not drawn) | -6.31 | -6.16 | < -5 |  |  |  | 
Cl.Cl.Clc1cccc2c1CCN(CC1=NCCN1)C2 | -7.8 | -7.65 | -5.68 |  |  |  | 
COc1cc2c(c(OC)c1)CN(CC1=NCCN1)CC2.Cl.Cl | -7.2 | -6.29 | < -5 |  |  |  | 
Cl.Cl.Clc1ccc2c(c1)CCN(CC1=NCCN1)C2 |  |  | < -5 | -6.18 | 15 | 4 | -6.83
Cl.Cl.Clc1ccc2c(c1Cl)CCN(CC1=NCCN1)C2 | -7.67 | -6.42 | < -5 |  |  |  | 

— ChEMBL document CHEMBL1125048, “Affinity of 2-(tetrahydroisoquinolin-2-ylmethyl)- and 2-(isoindolin-2-ylmethyl)imidazolines for alpha-adrenoceptors. Differential affinity of imidazolines for the [3H]idazoxan-labeled alpha 2-adrenoceptor vs the [3H]yohimbine-labeled site” (J Med Chem, 1990)
